Results from patent US20030194738A1, “Antisense oligonucleotide compositions and methods for the modulation of activating protein 1” (priority 1997, published 2003).

Assays:
Format in all cases: cell-based
c-jun mRNA = c-jun mRNA levels in PDGF-stimulated rat aortic smooth muscle cells; conditions: 200 nM for 4 hours; 2 and 6 hours after exposure to PDGF (10 ng/ml); versus untreated or ISIS 12898-treated cells
Experimental: (§1) In order to evaluate the effect of AP-1 modulation on cell cycle progression, the following study was performed. Cultured rat aortic smooth muscle (RASM) cells are stimulated to proliferate upon contact with platelet-derived growth factor (PDGF). Primary RASM cells (passages 6-8) were synchronized by incubation for 48 hours in DMEM containing 0.1% FBS. The cells were treated for 4 hours with 200 nM ISIS 12633 (SEQ ID NO:78), a 20-mer phosphorothioate oligonucleotide complementary to a portion of the 3′ UTR of rat c-jun mRNA, or ISIS 12898 (SEQ ID NO:92), a scrambled control of ISIS 12633. Cells were then contacted with PDGF (10 ng/ml) (R&D Systems, Minneapolis, Minn.), and cell cycle progression was assessed by FACS analysis 24 hours later. At 2 and 6 hours after exposure to PDGF, c-jun mRNA levels were markedly less in ISIS 12633-treated cells as compared to untreated cells or cells treated with ISIS 12898.

[1] = system: rat aortic smooth muscle (RASM) cells; assay: Cell cycle progression of PDGF-stimulated rat aortic smooth muscle cells, FACS analysis; conditions: 200 nM; 24 hours after PDGF
Experimental: as §1

rat c-jun mRNA = assay: Rat c-jun mRNA expression in rat A10 cells
Experimental: Tables 13 and 14 show the sequences of oligonucleotides designed to modulate rat c-jun and c-fos mRNA expression, respectively. For the nucleotide sequence of the rat c-jun gene, see Genbank accession No. X17163/RSJUNAP1 and Saaki et al., Cancer Res., 1989, 49:5633. The nucleotide sequence of the rat c-fos gene is described in Genbank accession No. X06769/RNCFOSR and Curran et al., Oncogene, 1987, 2:79. Oligonucleotide activities were evaluated as described infra in Example 2 et seq. with the exception that rat A10 cells (available from, inter alia, the American Type Culture Collection, Rockville, Md., as ATCC No. CRL-1476) were used instead of human A549 cells. Due to the high degree of homology between human and rat c-jun and c-fos nucleotide sequences, probes derived from the human genes were used to detect the rat messages.
Another preferred oligonucleotide targeted to rat AP-1 subunits is ISIS 12635 (SEQ ID NO:80).

For “TTT-TCT-TCC-ACT-GCC-CCT-CA (TTTTCTTCCACTGCCCCTCA; DNA, all phosphorothioate, methylation of C not given here) [ISIS 12633]”, the “c-jun mRNA levels (in words)” value (c-jun mRNA) was “markedly less”, the “proportion of cells in the G2/M interface (in words)” value [1] was “significant decrease” and the “modulation of rat c-jun (in words)” value (rat c-jun mRNA) was “active modulator”.
